Laboratory results as given in patent US20240246981A1, “[…] DERIVATIVES AS INHIBITORS OF […]-PEPTIDE CYCLOTRANSFERASE AND […]-PEPTIDE CYCLOTRANSFERASE LIKE PROTEIN” (Boehringer Ingelheim International GmbH, priority 2022, published 2024).

system: Caco-2 cells; assay: Assay C: permeability in CACO-2 cells; format: in vitro ADME; details: Caco-2, apical to basolateral; compounds of the invention, Table 7
Method in brief: (§1)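 Compound in transport solution applied to apical or basolateral donor side for A-B or B-A permeability, 3 filter replicates. Donor sampled at start and end, receiver at intervals up to 2 hours with volume replaced; concentrations by HPLC-MS/MS or scintillation counting.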

| SMILES | Permeability A-B |
| --- | --- |
| CNC(=O)c1cncc(-c2cccc(C#N)c2N2CCC(c3nncn3C)CC2)c1 [Example 80] | 0.2 10^−6 cm/s |

same assay, conditions: Caco-2, apical to basolateral; prior art compounds, Table 8

| SMILES | Permeability A-B |
| --- | --- |
| Cn1cnnc1C1CCN(c2ncccc2-c2ccc(F)nc2)CC1 [SEN177, reference compound] | 11.0 10^−6 cm/s |
| COCCOc1ncc(-c2cccc(C#N)c2N2CCC(c3nncn3C)CC2)cn1 [compound 3, reference compound] | 93 10^−6 cm/s |
| Cn1cnnc1C1CCN(c2c(C#N)cccc2-c2cncc(-n3cccn3)c2)CC1 [compound 6, reference compound] | 0.2 10^−6 cm/s |
| Nc1ncc(C2CCN(c3ncccc3-c3ccc(F)nc3)CC2)s1 [compound 1094, reference compound] | 68 10^−6 cm/s |
| Nc1nnc(C2CCN(c3ncccc3-c3ccc(F)nc3)CC2)s1 [compound 1095, reference compound] | 73 10^−6 cm/s |

same assay, conditions: Caco-2; compounds of the invention, Table 7

| SMILES | efflux ratio |
| --- | --- |
| CNC(=O)c1cncc(-c2cccc(C#N)c2N2CCC(c3nncn3C)CC2)c1 [Example 80] | 37.8 |

same assay, conditions: Caco-2; prior art compounds, Table 8

| SMILES | efflux ratio |
| --- | --- |
| COCCOc1ncc(-c2cccc(C#N)c2N2CCC(c3nncn3C)CC2)cn1 [compound 3, reference compound] | 0.8 |
| Cn1cnnc1C1CCN(c2c(C#N)cccc2-c2cncc(-n3cccn3)c2)CC1 [compound 6, reference compound] | 65.0 |
| Nc1ncc(C2CCN(c3ncccc3-c3ccc(F)nc3)CC2)s1 [compound 1094, reference compound] | 0.5 |
| Nc1nnc(C2CCN(c3ncccc3-c3ccc(F)nc3)CC2)s1 [compound 1095, reference compound] | 1.0 |

system: not listed separately; assay: Assay C: permeability in CACO-2 cells; format: in vitro ADME; details: human, pH 7.2; Caco-2, apical to basolateral; compounds of the invention, Table 7
Method in brief: as §1

| SMILES | Papp A→B |
| --- | --- |
| COCCOc1ncc(-c2cccc(C#N)c2N2CCC(c3nncn3C)CC2)cn1 [compound 3, reference compound] | 0.6 ×10⁻⁶ cm/s |
| Cn1cnnc1C1CCN(c2c(C#N)cccc2-c2cncc(-n3cccn3)c2)CC1 [compound 6, reference compound] | 3.9 ×10⁻⁶ cm/s |
| Cn1cnnc1C1(F)CCN(c2c(C#N)cccc2-c2cnn3ncccc23)CC1 [compound 70] | 14 ×10⁻⁶ cm/s |
| Cn1cnnc1C1(F)CCN(c2c(C#N)cccc2-c2cnc3nc(C(C)(C)C)cn3c2)CC1 [compound 71] | 2.7 ×10⁻⁶ cm/s |
| Cn1cnnc1C1(F)CCN(c2c(C#N)cccc2-c2cnc3nc(C(C)(C)C)nn3c2)CC1 [compound 72] | 3.9 ×10⁻⁶ cm/s |
| Cn1cnnc1C1(F)CCN(c2c(C#N)cccc2-c2cnc3nc(C(F)(F)F)nn3c2)CC1 [compound 73] | 3.3 ×10⁻⁶ cm/s |
| Cn1cnnc1C1(F)CCN(c2c(C#N)cccc2-c2cnc3nc(C(F)(F)F)cn3c2)CC1 [compound 74] | 1.7 ×10⁻⁶ cm/s |

same assay, conditions: human, pH 7.2; Caco-2; compounds of the invention, Table 7

| SMILES | efflux ratio |
| --- | --- |
| COCCOc1ncc(-c2cccc(C#N)c2N2CCC(c3nncn3C)CC2)cn1 [compound 3, reference compound] | 41.8 |
| Cn1cnnc1C1CCN(c2c(C#N)cccc2-c2cncc(-n3cccn3)c2)CC1 [compound 6, reference compound] | 16.9 |
| Cn1cnnc1C1(F)CCN(c2c(C#N)cccc2-c2cnn3ncccc23)CC1 [compound 70] | 2.4 |
| Cn1cnnc1C1(F)CCN(c2c(C#N)cccc2-c2cnc3nc(C(C)(C)C)cn3c2)CC1 [compound 71] | 24.4 |
| Cn1cnnc1C1(F)CCN(c2c(C#N)cccc2-c2cnc3nc(C(C)(C)C)nn3c2)CC1 [compound 72] | 14.4 |
| Cn1cnnc1C1(F)CCN(c2c(C#N)cccc2-c2cnc3nc(C(F)(F)F)nn3c2)CC1 [compound 73] | 14.8 |
| Cn1cnnc1C1(F)CCN(c2c(C#N)cccc2-c2cnc3nc(C(F)(F)F)cn3c2)CC1 [compound 74] | 14.1 |

system: SIRPα signalling induced by A549 cells; assay: Assay B: SIRPα signalling assay using A549 cells; format: cell-based, human; details: Homo sapiens, compounds of the invention, Table 4, read-out: Inhibition of SIRα signalling induced by A549 cells: IC50
Method in brief: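 5000 Raji or A549 cells were cultured 48 h at 37 °C with serially diluted compound (DMSO), then 15000 Jurkat PathHunter SIRPα reporter cells were added for 5 h. Beta-galactosidase luminescence was developed at RT, and IC50 obtained by 4-parameter sigmoidal fit.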

| SMILES | IC50 |
| --- | --- |
| COCCOc1ncc(-c2cccc(C#N)c2N2CCC(c3nncn3C)CC2)cn1 [compound 3, reference compound] | 290 nM |
| Cn1cnnc1C1CCN(c2c(C#N)cccc2-c2cncc(-n3cccn3)c2)CC1 [compound 6, reference compound] | 26 nM |
| Cn1cnnc1C1(F)CCN(c2c(C#N)cccc2-c2cnn3ncccc23)CC1 [compound 70] | 74 nM |
| Cn1cnnc1C1(F)CCN(c2c(C#N)cccc2-c2cnc3nc(C(C)(C)C)cn3c2)CC1 [compound 71] | 27 nM |
| Cn1cnnc1C1(F)CCN(c2c(C#N)cccc2-c2cnc3nc(C(C)(C)C)nn3c2)CC1 [compound 72] | 20 nM |
| Cn1cnnc1C1(F)CCN(c2c(C#N)cccc2-c2cnc3nc(C(F)(F)F)nn3c2)CC1 [compound 73] | 122 nM |
| Cn1cnnc1C1(F)CCN(c2c(C#N)cccc2-c2cnc3nc(C(F)(F)F)cn3c2)CC1 [compound 74] | 26 nM |

same assay, conditions: Homo sapiens, prior art compounds, Table 5, read-out: Inhibition of SIRPα signalling induced by A549 cells: IC50

| SMILES | IC50 |
| --- | --- |
| COCCOc1ncc(-c2cccc(C#N)c2N2CCC(c3nncn3C)CC2)cn1 [compound 3, reference compound] | 1400 nM |
| Cn1cnnc1C1CCN(c2c(C#N)cccc2-c2cncc(-n3cccn3)c2)CC1 [compound 6, reference compound] | 14 nM |

same assay, conditions: compounds of the invention, Table 4, read-out: Inhibition of SIRα signalling induced by A549 cells: IC50

| SMILES | IC50 |
| --- | --- |
| CNC(=O)c1cncc(-c2cccc(C#N)c2N2CCC(c3nncn3C)CC2)c1 [Example 80] | 176 nM |

same assay, conditions: prior art compounds, Table 5, read-out: Inhibition of SIRPα signalling induced by A549 cells: IC50

| SMILES | IC50 |
| --- | --- |
| Cn1cnnc1C1CCN(c2ncccc2-c2ccc(F)nc2)CC1 [SEN177, reference compound] | 214 nM |
| Nc1ncc(C2CCN(c3ncccc3-c3ccc(F)nc3)CC2)s1 [compound 1094, reference compound] | 3060 nM |
| Nc1nnc(C2CCN(c3ncccc3-c3ccc(F)nc3)CC2)s1 [compound 1095, reference compound] | 259 nM |

target: QPCTL (Homo sapiens (Human), UniProt Q9NXS2); assay: Assay A: biochemical QPCTL activity assay (MALDI-TOF MS); details: compounds of the invention, Table 2; read-out: Inhibition of QPCTL: IC50
Method in brief: (§2)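 Compounds preincubated 10 min at 24 °C with enzyme in 20 mM Tris pH 7.5, 0.1 mM TCEP, 0.01% BSA, 0.001% Tween20; CD47 peptide substrate (final 10 μM for QPCTL, 20 μM for QPCT) reacted 40 min at 24 °C. Pyroglutamate product read by MALDI-TOF MS versus internal standard, normalized to controls; four-parameter fit.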

Sequence of QPCTL (Q9NXS2 whole entry): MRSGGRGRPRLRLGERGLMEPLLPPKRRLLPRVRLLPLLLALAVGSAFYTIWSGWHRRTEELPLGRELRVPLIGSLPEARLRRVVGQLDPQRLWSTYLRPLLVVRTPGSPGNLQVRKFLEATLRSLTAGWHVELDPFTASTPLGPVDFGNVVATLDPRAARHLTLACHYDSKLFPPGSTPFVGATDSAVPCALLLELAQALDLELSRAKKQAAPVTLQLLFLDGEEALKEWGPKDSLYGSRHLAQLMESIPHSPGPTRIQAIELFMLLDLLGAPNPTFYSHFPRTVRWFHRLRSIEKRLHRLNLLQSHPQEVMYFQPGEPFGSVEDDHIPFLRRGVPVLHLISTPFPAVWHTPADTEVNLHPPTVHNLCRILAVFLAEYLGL

| SMILES | IC50 |
| --- | --- |
| CNC(=O)c1cncc(-c2cccc(C#N)c2N2CCC(c3nncn3C)CC2)c1 [Example 80] | 2 nM |
| COCCOc1ncc(-c2cccc(C#N)c2N2CCC(c3nncn3C)CC2)cn1 [compound 3, reference compound] | 11 nM |
| Cn1cnnc1C1CCN(c2c(C#N)cccc2-c2cncc(-n3cccn3)c2)CC1 [compound 6, reference compound] | 1 nM |
| Cn1cnnc1C1(F)CCN(c2c(C#N)cccc2-c2cnn3ncccc23)CC1 [compound 70] | 5 nM |
| Cn1cnnc1C1(F)CCN(c2c(C#N)cccc2-c2cnc3nc(C(C)(C)C)cn3c2)CC1 [compound 71] | 2 nM |
| Cn1cnnc1C1(F)CCN(c2c(C#N)cccc2-c2cnc3nc(C(C)(C)C)nn3c2)CC1 [compound 72] | 1 nM |
| Cn1cnnc1C1(F)CCN(c2c(C#N)cccc2-c2cnc3nc(C(F)(F)F)nn3c2)CC1 [compound 73] | 4 nM |
| Cn1cnnc1C1(F)CCN(c2c(C#N)cccc2-c2cnc3nc(C(F)(F)F)cn3c2)CC1 [compound 74] | 1 nM |

same assay, conditions: prior art compounds, Table 3; read-out: Inhibition of QPCTL: IC50

| SMILES | IC50 |
| --- | --- |
| Cn1cnnc1C1CCN(c2c(C#N)cccc2-c2cncc(-n3cccn3)c2)CC1 [compound 6, reference compound] | 1 nM |
| Nc1ncc(C2CCN(c3ncccc3-c3ccc(F)nc3)CC2)s1 [compound 1094, reference compound] | 111 nM |
| Nc1nnc(C2CCN(c3ncccc3-c3ccc(F)nc3)CC2)s1 [compound 1095, reference compound] | 13 nM |

system: SIRPα signalling induced by Raji cells; assay: Assay B: SIRPα signalling assay using Raji cells; format: cell-based, human; details: Homo sapiens, compounds of the invention, Table 4, read-out: Inhibition of SIRα signalling induced by Raji cells: IC50
Method in brief: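 SIRPα signalling induced by Raji cells in a PathHunter reporter line, read as β-galactosidase complementation luminescence. Detection reagent 1 added for 15 min, then reagent 2 for 60 min in the dark, both at room temperature.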

| SMILES | IC50 |
| --- | --- |
| COCCOc1ncc(-c2cccc(C#N)c2N2CCC(c3nncn3C)CC2)cn1 [compound 3, reference compound] | 629 nM |
| Cn1cnnc1C1CCN(c2c(C#N)cccc2-c2cncc(-n3cccn3)c2)CC1 [compound 6, reference compound] | 220 nM |
| Cn1cnnc1C1(F)CCN(c2c(C#N)cccc2-c2cnn3ncccc23)CC1 [compound 70] | 79 nM |
| Cn1cnnc1C1(F)CCN(c2c(C#N)cccc2-c2cnc3nc(C(C)(C)C)cn3c2)CC1 [compound 71] | 49 nM |
| Cn1cnnc1C1(F)CCN(c2c(C#N)cccc2-c2cnc3nc(C(C)(C)C)nn3c2)CC1 [compound 72] | 28 nM |
| Cn1cnnc1C1(F)CCN(c2c(C#N)cccc2-c2cnc3nc(C(F)(F)F)nn3c2)CC1 [compound 73] | 261 nM |
| Cn1cnnc1C1(F)CCN(c2c(C#N)cccc2-c2cnc3nc(C(F)(F)F)cn3c2)CC1 [compound 74] | 18 nM |

same assay, conditions: Homo sapiens, prior art compounds, Table 5, read-out: Inhibition of SIRPα signalling induced by Raji cells: IC50

| SMILES | IC50 |
| --- | --- |
| COCCOc1ncc(-c2cccc(C#N)c2N2CCC(c3nncn3C)CC2)cn1 [compound 3, reference compound] | 2740 nM |
| Cn1cnnc1C1CCN(c2c(C#N)cccc2-c2cncc(-n3cccn3)c2)CC1 [compound 6, reference compound] | 9 nM |

same assay, conditions: compounds of the invention, Table 4, read-out: Inhibition of SIRα signalling induced by Raji cells: IC50

| SMILES | IC50 |
| --- | --- |
| CNC(=O)c1cncc(-c2cccc(C#N)c2N2CCC(c3nncn3C)CC2)c1 [Example 80] | 336 nM |

same assay, conditions: prior art compounds, Table 5, read-out: Inhibition of SIRPα signalling induced by Raji cells: IC50

| SMILES | IC50 |
| --- | --- |
| Cn1cnnc1C1CCN(c2ncccc2-c2ccc(F)nc2)CC1 [SEN177, reference compound] | 1360 nM |
| Nc1ncc(C2CCN(c3ncccc3-c3ccc(F)nc3)CC2)s1 [compound 1094, reference compound] | 3240 nM |
| Nc1nnc(C2CCN(c3ncccc3-c3ccc(F)nc3)CC2)s1 [compound 1095, reference compound] | 2200 nM |

target: QPCT (Homo sapiens (Human), UniProt Q16769); assay: Assay A: biochemical QPCT activity assay (MALDI-TOF MS); details: compounds of the invention, Table 2; read-out: Inhibition of QPCT: IC50
Method in brief: as §2

Sequence of QPCT (Q16769 29-361): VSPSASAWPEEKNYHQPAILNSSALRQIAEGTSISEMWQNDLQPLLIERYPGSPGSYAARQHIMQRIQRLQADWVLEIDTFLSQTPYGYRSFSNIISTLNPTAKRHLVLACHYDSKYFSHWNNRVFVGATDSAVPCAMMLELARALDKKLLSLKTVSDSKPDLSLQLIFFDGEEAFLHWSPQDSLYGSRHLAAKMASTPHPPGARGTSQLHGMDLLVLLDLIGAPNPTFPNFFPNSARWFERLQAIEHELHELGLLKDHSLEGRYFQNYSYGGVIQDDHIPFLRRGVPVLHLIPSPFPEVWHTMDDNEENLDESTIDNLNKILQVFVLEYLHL

| SMILES | IC50 |
| --- | --- |
| CNC(=O)c1cncc(-c2cccc(C#N)c2N2CCC(c3nncn3C)CC2)c1 [Example 80] | 11 nM |
| COCCOc1ncc(-c2cccc(C#N)c2N2CCC(c3nncn3C)CC2)cn1 [compound 3, reference compound] | 51 nM |
| Cn1cnnc1C1CCN(c2c(C#N)cccc2-c2cncc(-n3cccn3)c2)CC1 [compound 6, reference compound] | 7 nM |
| Cn1cnnc1C1(F)CCN(c2c(C#N)cccc2-c2cnn3ncccc23)CC1 [compound 70] | 2 nM |
| Cn1cnnc1C1(F)CCN(c2c(C#N)cccc2-c2cnc3nc(C(C)(C)C)cn3c2)CC1 [compound 71] | 1 nM |
| Cn1cnnc1C1(F)CCN(c2c(C#N)cccc2-c2cnc3nc(C(C)(C)C)nn3c2)CC1 [compound 72] | 1 nM |
| Cn1cnnc1C1(F)CCN(c2c(C#N)cccc2-c2cnc3nc(C(F)(F)F)nn3c2)CC1 [compound 73] | 8 nM |
| Cn1cnnc1C1(F)CCN(c2c(C#N)cccc2-c2cnc3nc(C(F)(F)F)cn3c2)CC1 [compound 74] | 1 nM |

same assay, conditions: prior art compounds, Table 3; read-out: Inhibition of QPCT: IC50

| SMILES | IC50 |
| --- | --- |
| Nc1ncc(C2CCN(c3ncccc3-c3ccc(F)nc3)CC2)s1 [compound 1094, reference compound] | 1710 nM |
| Nc1nnc(C2CCN(c3ncccc3-c3ccc(F)nc3)CC2)s1 [compound 1095, reference compound] | 260 nM |
